Our source for the IC50 and EC50 values is patent US9126935B2, “Aurora kinase modulators and methods of use” (Amgen Inc., priority 2008, dated 2015).

The target of one assay is T1, AuroraB (Homo sapiens, UniProt Q96GD4).
T1 construct: 20 μL of AuroraB FL His for a final volume of 41 μL; His
Kind of assay: AuroraB Homogeneous Time Resolved Fluorescent (HTRF) kinase assay. Type of assay: biochemical. Particulars: average; ATP 23 μM; read-out: AurB_IC50_IP (uM Avg). On the procedure:
The AuroraB HTRF assay begins with AuroraB in the presence of ATP phosphorylating the biotinylated peptide Histone H3. The reaction incubates for about 90 min. the reaction is quenched by addition of detection reagents, which stop the reaction by diluting out the enzyme and chelating the metals due to the presence of EDTA. After addition, the assay is incubated for about 60 min to allow detection reagents to equilibrate.
The AuroraB HTRF assay comprises 1 μL of compound in 100% DMSO, 20 μL of ATP and biotinylated Histone H3, and 20 μL of AuroraB FL His for a final volume of 41 μL. The final concentration of Histone H3 is 0.1 μM. The final concentration of ATP is 23 μM (Km(app)=23 μM+/−2.6) and the final concentration of AuroraB is 400 pM. Buffer conditions are as follows: 50 mM HEPES pH 7.5, 5 mM NaCl, 0.5 mM MgCl, 0.5 mM MnCl, 2 mM DTT, 0.05% BSA.
The assay is quenched and stopped with 160 μL of detection reagent. Detection reagents are as follows: Buffer made of 50 mM Tris, pH 7.5, 100 mM NaCl, 3 mM EDTA, 0.05% BSA, 0.1% Tween20. Added to this buffer prior to reading is Steptavidin allophycocyanin (SA-APC) at a final conc in the assay of 0.001 mg/mL, and europilated anti-phosphoHistoneH3 Ab (Eu-anti-His H3) at a final conc of 0.064 nM.
The assay plate is read in either a Discovery or a RubyStar. The eu-anti-His H3 is excited at 320 nm and emits at 615 nm to excite the SA-APC which in turn emits at 655 nm. The ratio of SA-APC at 655 nm (excited due to close proximity to the Eu-anti-H is H3 because of phosphorylation of the peptide) to free Eu-anti-His H3 at 615 nm will give substrate phosphorylation.

Another assay deals with HeLa cells. The assay is described as follows: HeLa cell 24 hr ploidy assay. The assay is classed as cell-based. To be noted: Homo sapiens, 24 hrs treatment, average, read-out: 24h_4N Ploidy EC50_IP (uM Avg). On the procedure:
The purpose of this assay is to evaluate the ability of selected individual compounds to induce Deoxyribonucleic acid (DNA) content (ploidy) in cells through failed cell division. Cell cycle analysis is a rapid and efficient way to evaluate the status of DNA content (ploidy) of a given cell. HeLa cells (1×10^4 HeLa cells/well) in 100 ul of media (MEM+10% FBS) were plated in 96-well plates (Packard View) and cultured for 24 hrs at 37° C. maintained in a 5% CO2 atmosphere. The following day, cells were treated for 24 hrs with inhibitor compounds (10 pt. Dose ranging from 0.0024-1.25 umol/L). The compounds were serially diluted in DMSO (0.25% final concentration). The cells were fixed (3.7% Formaldehyde and 1% glutaraldehyde) and permeabilized (1×PBS with 1% BSA and 0.2% Triton X-100) in preparation for nuclear staining. The well plates were stained for 45 minutes at RT in the dark using Hoechest 33342 nuclear stain at 0.5 ug·ml (Stock of 10 mg/ml, Invitrogen, CA, Cat # H3570). The nuclear stain was removed by aspiration and the cells were washed with wash buffer. A Cellomics Array Scan Vti plate reader was used to acquire the DNA ploidy data of the cells using Cell Cycle bioapplication. Numbers for each of “valid cell count/well”, “% of 4N cells” and “% of >4Ncells” were calculated with the assistance of an Activity Base 5.1ca software and dose curves were generated using an XLFit software. With XLFit, final EC50 IP and EC50 transit values, as well as the Max and Min, were calculated for each curve.

Another assay has as its target T2, AuroraA-TPX2 (Homo sapiens, UniProt O14965).
T2 construct: 20 μL of AuroraA-TPX2 KD GST for a final volume of about 41 μL; GST
T2 sequence (O14965 133-383 limits assumed): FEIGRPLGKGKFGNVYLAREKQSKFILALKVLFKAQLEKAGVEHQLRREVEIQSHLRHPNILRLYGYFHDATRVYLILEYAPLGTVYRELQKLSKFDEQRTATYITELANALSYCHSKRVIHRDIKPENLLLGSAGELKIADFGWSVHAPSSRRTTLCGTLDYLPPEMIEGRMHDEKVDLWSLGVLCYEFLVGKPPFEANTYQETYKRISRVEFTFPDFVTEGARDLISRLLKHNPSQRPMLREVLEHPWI
T2 sequence (Q9ULW0 1-43 partner limits assumed): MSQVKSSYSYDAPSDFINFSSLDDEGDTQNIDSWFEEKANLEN
The assay is described as follows: AuroraA-TPX2 Homogeneous Time Resolved Fluorescent (HTRF) kinase assay. Type of assay: biochemical. Particulars: average; ATP about 1 μM; read-out: AurA _IC50_ IP (uM Avg). The protocol: The Aurora-A HTRF assay begins with Aurora-A in the presence of ATP phosphorylating the biotinylated peptide PLK. The reaction incubates for about 120 min. Detection reagents are added to quench the reaction. These agents stop the reaction by diluting out the enzyme and chelating the metals due to the presence of EDTA. After addition, the assay is incubated overnight to allow the detection reagents to equilibrate.
The AuroraA HTRF assay comprises 1 μL of compound in 100% DMSO, 20 μL of ATP and biotinylated PLK, and 20 μL of AuroraA-TPX2 KD GST for a final volume of about 41 μL. The final concentration of PLK is about 1 μM. The final concentration of ATP is about 1 μM (Km(app)=1 μM+/−0.1) and the final concentration of AuroraA is about 5 nM. Buffer conditions are as follows: 60 mM HEPES pH 7.5, 25 mM NaCl, 10 mM MgCl, 2 mM DTT, 0.05% BSA.
The assay is quenched and stopped with 160 μL of detection reagent. Detection reagents are as follows: Buffer made of 50 mM Tris, pH 7.5, 100 mM NaCl, 3 mM EDTA, 0.05% BSA, 0.1% Tween20. Added to this buffer prior to reading is Steptavidin allophycocyanin (SA-APC) at a final conc in the assay of 0.0005 mg/mL, and europilated anti-phosphoPLK Ab (Eu-anti-PLK) at a final conc of 0.02 nM.
The assay plate is read in either a Discovery or a RubyStar. The eu-anti-PLK is excited at 320 nm and emits at 615 nm to excite the SA-APC which in turn emits at 655 nm. The ratio of SA-APC at 655 nm (excited due to close proximity to the Eu-anti-PLK because of phosphorylation of the peptide) to free Eu-anti-PLK at 615 nm will give substrate phosphorylation.

SMILES strings stand for the structures.

T1 sequence (Q96GD4 whole entry): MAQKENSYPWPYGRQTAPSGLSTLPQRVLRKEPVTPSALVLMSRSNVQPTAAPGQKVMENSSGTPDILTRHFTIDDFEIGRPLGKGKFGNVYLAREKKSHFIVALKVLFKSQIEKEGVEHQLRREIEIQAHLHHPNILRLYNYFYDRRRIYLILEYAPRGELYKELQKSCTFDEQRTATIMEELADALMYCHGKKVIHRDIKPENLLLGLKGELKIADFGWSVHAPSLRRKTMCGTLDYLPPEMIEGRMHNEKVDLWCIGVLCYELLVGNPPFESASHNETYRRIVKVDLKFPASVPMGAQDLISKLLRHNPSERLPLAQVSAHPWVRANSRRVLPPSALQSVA

With `COc1cc2nccc(Oc3ccc(NC(=O)c4ccccc4Nc4ccc(F)cc4)cc3)c2cc1OC` [Example 11, N-(4-(6,7-dimethoxyquinolin-4-yloxy)phenyl)-2-(4-fluorophenylamino)benzamide], the IC50 at AuroraB and at AuroraA-TPX2 was < 0.1 µM throughout. The EC50 in the assay on HeLa cells is < 0.1 µM.
As to `COc1cc2nccc(Oc3ccc(NC(=O)c4ccccc4Nc4ccccc4)cc3)c2cc1OC` [Example 12, N-(4-(6,7-dimethoxyquinolin-4-yloxy)phenyl)-2-(phenylamino)benzamide], the IC50 on AuroraB and on AuroraA-TPX2 was < 0.1 µM each time. For the same compound, the EC50 with HeLa cells is < 0.1 µM.
With `COc1cc2nccc(Oc3ccc(NC(=O)c4ccccc4Nc4cccc(F)c4)cc3)c2cc1OC` [Example 13, N-(4-(6,7-dimethoxyquinolin-4-yloxy)phenyl)-2-(3-fluorophenylamino)benzamide], the IC50 on AuroraB and on AuroraA-TPX2 was < 0.1 µM each time. The EC50 in the assay on HeLa cells is < 0.1 µM.
As to `COc1cnc2c(Oc3ccc(NC(=O)c4cc(F)ccc4Nc4ccccc4)cc3)ccnc2c1` [Example 14, 5-fluoro-N-(4-(7-methoxy-1,5-naphthyridin-4-yloxy)phenyl)-2-(phenylamino)benzamide], the IC50 at AuroraB and at AuroraA-TPX2 was < 0.1 µM in each case. In the assay with HeLa cells, the EC50 was < 0.1 µM.
Turning to `COc1cnc2c(Oc3ccc(NC(=O)c4ccccc4Nc4ccccc4)cc3)ccnc2c1` [Example 15, N-(4-(7-methoxy-1,5-naphthyridin-4-yloxy)phenyl)-2-(phenylamino)benzamide], the IC50 at AuroraB and at AuroraA-TPX2 was < 0.1 µM each time. Besides, the EC50 with HeLa cells was < 0.1 µM.
As to `COc1cc2nccc(Oc3ccc(NC(=O)c4ccccc4Nc4ccccc4)cc3F)c2cc1OC` [Example 16, N-(4-(6,7-dimethoxyquinolin-4-yloxy)-3-fluorophenyl)-2-(phenylamino)benzamide], the IC50 on AuroraB and at AuroraA-TPX2 was < 0.1 µM in each case.
For the compound `COc1ccc2c(Oc3ccc(NC(=O)c4ccccc4Nc4ccccc4)cc3F)ccnc2c1` [Example 17, N-(3-fluoro-4-(7-methoxyquinolin-4-yloxy)phenyl)-2-(phenylamino)benzamide], the IC50 at AuroraB and at AuroraA-TPX2 was < 0.1 µM each time. In addition, the EC50 with HeLa cells fell in the range of 0.1 to 0.5 µM.
On to `Nc1nccc(Oc2ccc(NC(=O)c3ccccc3Nc3ccc(F)cc3)cc2)n1` [Example 18, N-(4-(2-aminopyrimidin-4-yloxy)phenyl)-2-(4-fluorophenylamino)benzamide], for which the IC50 at AuroraB and at AuroraA-TPX2 was 0.1 to 0.5 µM each time. Also, the EC50 with HeLa cells lay within 1 to 5 µM.
As for `COc1cnc2c(Sc3ccc(NC(=O)c4ccccc4NN4CCCCC4)cc3)ccnc2c1` [Example 19, N-(4-(7-methoxy-1,5-naphthyridin-4-ylthio)phenyl)-2-(piperidin-1-ylamino)benzamide], the IC50 at AuroraB was < 0.1 µM; on AuroraA-TPX2, 0.5 to 1 µM. The EC50 in the assay on HeLa cells is 0.5 to 1 µM.
`COc1cnc2c(Oc3ccc(NC(=O)c4ccccc4NN4CCCCC4)cc3)ccnc2c1` [Example 20, N-(4-(7-methoxy-1,5-naphthyridin-4-yloxy)phenyl)-2-(piperidin-1-ylamino)benzamide]: the IC50 on AuroraB is 0.1 to 0.5 µM; on AuroraA-TPX2 it was 0.5 to 1 µM. The EC50 in the assay on HeLa cells was in the range of 1 to 5 µM.
Turning to `CNC(=O)c1cc(Oc2ccc(NC(=O)c3ccccc3Nc3ccccc3)cc2)ccn1` [Example 21, N-methyl-4-(4-(2-(phenylamino)benzamido)phenoxy)picolinamide], the IC50 at AuroraB lay in the range of 0.1 to 0.5 µM; at AuroraA-TPX2 it was 1 to 5 µM. Moreover, the EC50 in the assay on HeLa cells was 1 to 5 µM.
Regarding `COc1cnc2c(Sc3ccc(NC(=O)c4ccccc4NN4CCC(OC)CC4)cc3)ccnc2c1` [Example 22, N-(4-(7-methoxy-1,5-naphthyridin-4-ylthio)phenyl)-2-(4-methoxypiperidin-1-ylamino)benzamide], the IC50 at AuroraB is < 0.1 µM; at AuroraA-TPX2 it was 1 to 5 µM. Besides, the EC50 in the assay with HeLa cells was 0.5 to 1 µM.
